pIC50, pKd: −log10 of the molar value. Where a SMILES comes first, the peptide text is derived from it. [ ]: non-standard residue; d: D form. The star is where a group is joined. pY = N[C@@H](Cc1ccc(OP(=O)(O)O)cc1)C(=O)O; Myristoyl = CCCCCCCCCCCCCC(=O)*
Tests used:
[1] = molecular target: T1, E3 ubiquitin-protein ligase CBL-B (Homo sapiens, UniProt Q13191)
Description: Binding affinity to CBl-b (unknown origin) assessed as dissociation constant by Surface plasmon resonance

[2] = molecular target: T1, E3 ubiquitin-protein ligase CBL-B; test: Inhibition of Cbl-b (unknown origin) by TR-FRET assay
[3] = molecular target: T1, E3 ubiquitin-protein ligase CBL-B; test: Inhibition of Cbl-b (unknown origin) ubiquitination by TR-FRET assay
[4] = Intrinsic clearance in mouse liver microsomes by HPLC-MS/MS analysis
[5] = Half life in rat plasma; type: ADME, cell-free
[6] = molecular target: T1, E3 ubiquitin-protein ligase CBL-B; test: Inhibition of recombinant Cbl-b (unknown origin) ubiquitination incubated for 1 hr by TR-FRET assay
[7] = molecular target: T1, E3 ubiquitin-protein ligase CBL-B; test: Inhibition of biotinylated recombinant Cbl-b (36 to 427 residues)(unknown origin) expressed in Escherichia coli BL21(DE3) measured for 1 hr by TR-FRET assay
[8] = molecular target: T1, E3 ubiquitin-protein ligase CBL-B; test: Inhibition of Cbl-b (unknown origin)
[9] = molecular target: T1, E3 ubiquitin-protein ligase CBL-B; test: Inhibition of Cbl-b (unknown origin) by SPR assay
[10] = molecular target: T1, E3 ubiquitin-protein ligase CBL-B; test: Inhibition of Cbl-b (unknown origin) by HTRF assay
[11] = molecular target: T1, E3 ubiquitin-protein ligase CBL-B; test: Inhibition of N-terminal His-tagged human Cbl-b (40 to 426 residues) expressed in Escherichia coli by measured for 90 mins by HTRF method

T1 sequence (Q13191 whole entry): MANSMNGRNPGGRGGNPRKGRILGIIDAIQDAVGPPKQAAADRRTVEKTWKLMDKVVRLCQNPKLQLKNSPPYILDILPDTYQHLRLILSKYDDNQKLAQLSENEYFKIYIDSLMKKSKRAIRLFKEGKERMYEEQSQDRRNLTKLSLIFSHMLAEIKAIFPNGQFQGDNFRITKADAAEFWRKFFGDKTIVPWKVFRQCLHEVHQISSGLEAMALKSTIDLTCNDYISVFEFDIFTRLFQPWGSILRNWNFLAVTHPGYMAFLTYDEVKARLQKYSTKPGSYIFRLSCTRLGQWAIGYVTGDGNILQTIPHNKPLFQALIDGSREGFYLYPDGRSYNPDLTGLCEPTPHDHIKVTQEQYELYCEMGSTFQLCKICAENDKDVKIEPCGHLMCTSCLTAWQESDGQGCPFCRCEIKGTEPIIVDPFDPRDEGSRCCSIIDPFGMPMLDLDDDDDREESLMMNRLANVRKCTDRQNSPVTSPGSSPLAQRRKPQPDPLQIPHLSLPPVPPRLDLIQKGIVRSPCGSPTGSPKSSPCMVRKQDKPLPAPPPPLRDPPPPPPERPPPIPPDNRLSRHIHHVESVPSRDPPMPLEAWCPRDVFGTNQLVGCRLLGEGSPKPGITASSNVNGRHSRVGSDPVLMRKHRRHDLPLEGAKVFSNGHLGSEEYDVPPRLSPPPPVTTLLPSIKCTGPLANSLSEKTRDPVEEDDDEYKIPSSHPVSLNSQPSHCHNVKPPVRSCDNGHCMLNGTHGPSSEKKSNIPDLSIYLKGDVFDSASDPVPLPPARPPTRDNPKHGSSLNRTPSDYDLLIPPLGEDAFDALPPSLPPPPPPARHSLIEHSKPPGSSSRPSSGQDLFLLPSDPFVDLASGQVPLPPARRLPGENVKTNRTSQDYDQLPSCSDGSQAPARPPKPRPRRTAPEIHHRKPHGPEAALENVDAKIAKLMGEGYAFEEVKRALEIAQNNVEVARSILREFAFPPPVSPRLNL

Q: With `Cc1cc(C(=O)Nc2cccc(C3(Cc4nncn4C)COC3)c2)nc(C2CC2)n1` as the compound, how does the pKd [1] read?
A: 7.70

Q: And the pIC50 [2]?
A: 7.70

Q: And the pIC50 [3]?
A: 7.68

Q: With `C[C@H](Sc1nncn1C)c1cccc(NC(=O)c2ccnc(C3CC3)n2)c1` as the compound, how does the CLint scaled [4] read?
A: 500 mL/min/kg

Q: What about the half-life [5] of the same compound?
A: 2.33 h

Q: What does the source list for `C[C@H]1CCCN(Cc2cc3c(c(C(F)(F)F)c2)CN(c2cccc([C@]4(c5nncn5C)C[C@@H](C)C4)c2)C3=O)C1`?
A: pKd [1]: 8.10; pIC50 [6]: > 8.30; pIC50 [3]: > 8.30

Q: With `Cn1cnnc1C(F)(F)[C@](C)(F)c1cccc(NC(=O)N2CC3(CNC3)Oc3cccnc32)c1` as the compound, how does the pIC50 [7] read?
A: > 7.00

Q: What about the pIC50 [8] of the same compound?
A: > 7.00

Q: With `COCC1(NCc2cc3c(c(C(F)(F)F)c2)CN(c2cccc([C@]4(c5nncn5C)C[C@H](OC)C4)c2)C3=O)CC1` as the compound, how does the pKd [1] read?
A: 8.40

Q: And the pIC50 [9]?
A: 8.40

Q: With `C[C@H](Cc1nncn1C)c1cccc(-c2n[nH]c3c(CN4CC[C@H](F)C4)cc(C(F)(F)F)nc23)c1` as the compound, how does the pIC50 [7] read?
A: > 7.00

Q: What about the pIC50 [8] of the same compound?
A: > 7.00

Q: What does the source list for `Cn1cnnc1-c1cc(C#N)ccc1-c1cc(C2CC2)nc(N2Cc3c(cc(CNCC4(F)CCC4)cc3C(F)(F)F)C2=O)c1`?
A: pIC50 [9]: 6.70; pIC50 [10]: > 6.70

Q: With `Cc1cc(CNC2(C)CCC2)cc2c(=O)c(-c3cccc([C@]4(c5nncn5C)C[C@@H](C)C4)c3)coc12` as the compound, how does the pIC50 [11] read?
A: 7.89

Q: What about the pIC50 [8] of the same compound?
A: 8.00

Q: With `Cn1cnnc1[C@]1(c2cccc(NC(=O)c3cc(CN4CCC[C@H](C(F)F)C4)cn4ccnc34)c2)C[C@H](CC#N)C1` as the compound, how does the pIC50 [11] read?
A: 9.00

Q: What about the pIC50 [8] of the same compound?
A: 8.30

Q: With `CC(c1cc(C(=O)Nc2cccc([C@]3(c4nncn4C)C[C@@H](CC#N)C3)c2)nc2cc[nH]c12)N1CCC[C@H](C)C1` (stereo partly specified) as the compound, how does the pIC50 [11] read?
A: 8.40

Q: And the pIC50 [8]?
A: 4.96

Q: What does the source list for `C[C@H]1CCCN(Cc2cc(C(F)(F)F)c3[nH]c(-c4cccc([C@]5(c6nncn6C)C[C@@H](C)C5)c4)nc3c2)C1`?
A: pIC50 [7]: > 6.70; pIC50 [8]: > 6.70

Q: With `Cn1cnnc1[C@]1(c2cccc(-n3cc4c(C(F)(F)F)cc(CN5CCC6(CC6)C5)cn4c3=O)c2)C[C@H](C)C1` as the compound, how does the pIC50 [7] read?
A: > 7.00

Q: And the pIC50 [8]?
A: > 7.00

Q: And the pIC50 [6]?
A: > 7.00

Q: What does the source list for `Cn1cnnc1[C@]1(c2cccc(-c3cnc4c(C(F)(F)F)cc(CN5CC6CC(C)(C6)C5)cn4c3=O)c2)C[C@H](C)C1`?
A: pIC50 [11]: 7.60; pIC50 [8]: 7.70

Q: With `Cn1cnnc1[C@]1(c2cccc(N3C(=O)c4cc(CNC5(C)CCC5)cc5cccc3c45)c2)C[C@H](C)C1` as the compound, how does the pIC50 [9] read?
A: 7.70

Q: What about the pIC50 [10] of the same compound?
A: 7.70

Q: With `CO[C@@]1(C(=O)N/C=C/c2ccc(O)cc2)O[C@](O)(C(=O)N/C=C/c2ccc(O)cc2)[C@@H](c2ccc(O)c(O)c2)[C@@H]1c1ccc(O)c(O)c1` as the compound, how does the pIC50 [8] read?
A: 4.96

Q: With `O=C(N/C=C/c1ccc(O)cc1)c1c(-c2ccc(O)c(O)c2)c(-c2ccc(O)c(O)c2)c(C(=O)N/C=C/c2ccc(O)cc2)n1CCc1ccc(O)cc1` as the compound, how does the pIC50 [8] read?
A: 5.19

Q: With `CC(C)[C@H]1CN(C)CCN1Cc1cc(C(=O)Nc2cccc(C3([C@@H](F)c4nncn4C)CC(F)(F)C3)c2)nc(C2CC2)c1` as the compound, how does the pIC50 [10] read?
A: 8.15

Q: And the pIC50 [3]?
A: 8.15

Q: With `CCCCCCCCCCCCCC(=O)N[C@@H](CC(=O)O)C(=O)NCC(=O)N[C@@H](Cc1ccc(OP(=O)(O)O)cc1)C(=O)N[C@@H](CCSC)C(=O)N1CCC[C@H]1C(=O)O` (Myristoyl-DG[pY]MP-OH) as the compound, how does the pIC50 [6] read?
A: 4.52

Source: ChEMBL document CHEMBL5550096, “Casitas b cell lymphoma‑B (Cbl-b): A new therapeutic avenue for small-molecule immunotherapy” (Bioorg Med Chem, 2024)
